The values that follow come from US11759480B2, “Compositions and methods for CAR T cell therapy” (ENDOCYTE, INC., priority 2017, dated 2023).

For data set [1], the system named is MDA-MB-231 solid tumor xenografts. The experiment in a line: Control of CAR T cell activation in vivo: break, FA competitor or both (Example 19). As to conditions: 15×10^6 CAR T cells + FITC-Folate 500 nmole/kg every other day. How it is done:
Five study groups were designed to test whether anti-FITC CAR T cell activation can be controlled via temporal termination of FITC-ligands, by administering a competitor small molecule, or a combination approach of both discontinuing of FITC-ligands and/or administering an FA competitor. The first group was treated by administering anti-FITC CAR T cell with phosphate-buffered saline (PBS) as a negative control. Every other day over the course of the study, the second, third, fourth and fifth groups were treated with anti-FITC CAR T cell mixed with FITC-Folate (500 nmole/kg). […] Mouse bodyweight was measured regularly to test for toxicity.

A further data set concerns MDA-MB-231 tumor. The experiment in a line: CAR-T anti-tumor activity and toxicity at different EC17 dose levels (Example 27). In kind it is in vivo. How it is done:
Immunodeficient NSG mice (Jackson Laboratory) were used to study CAR T cell anti-tumor activity and its toxicity in the presence of different EC17 dose levels. MDA-MB-231 tumor cells were used to establish subcutaneous solid tumor xenografts. When tumor volume of around 100-150 mm^3 was reached, various concentrations of EC17 were pre-injected 4 hours before i.v. injection of 10 million CAR-T cells. Various concentrations of EC17 were then administrated three times per week after the initial EC17 and CAR-T cell injections. The negative control group was injected with 500 nmol/kg EC17 (4 hour in advance) and […] unmodified T cells. 500 nmol/kg EC17 was then administrated three times per week after initial injection. Tumor size and body weight were measured to monitor the anti-tumor activity and the toxicity. […] By adjusting the EC17 dose level, CAR-T anti-tumor activity can be maintained while the resulting body weight loss (toxicity) can be reduced. In FIGS. 20A and 20B, EC17 is also referred to as “adaptor” or “bi-specific adaptor”.

Another data set has as its system FR+ MDA-MB-231 tumors. The experiment in a line: FITC-CAR-T toxicity and spleen size in MDA-MB-231 s.c. model (Example 37). The data set is classed as in vivo, mice. How it is done:
(§1) The evaluation of FITC-CAR-T proliferation and related toxicity in both naïve mice and mice bearing FR+ tumor xenografts was tested. To evaluate whether FITC-CAR-T proliferation in vivo is dependent on the co-existence of the bridge (e.g. EC17) and the tumor antigen (e.g. folate receptor), FITC-CAR-T proliferation in vivo was compared in naïve mice and mice bearing FR+ tumor xenografts, either with or without EC17. 5-8 million CAR-T cells (as indicated in FIGS. 42 and 43) were administered (i.v.) into naïve mice without tumors and mice bearing FR+ tumor xenografts (80-200 mm3). 500 nmol/kg EC17 was dosed 4 hours before and three times per week post CAR-T administration, if desired. Mice were monitored for body weight changes and CAR-T cell count in blood circulation; some mice were also euthanized weekly to evaluate organs. […] CAR-T cell count in blood samples was also compared to evaluate CAR-T proliferation. […] Since the enlargement of spleen size is another indicator for CAR-T proliferation in vivo, spleen size was also measured as shown in FIG. 43B.
(§2) For FIG. 42, the MDA-MB-231 s.c. model was used. For FIG. 43A, the HEK-FRa s.c. xenograft model was used. For FIG. 43B, the MDA-MB-231 s.c. model was used.

The subject of data set [2] is MDA-MB-231 solid tumor xenografts. The experiment in a line: Anti-tumor efficacy and toxicity of CAR T cells with EC17 in vivo (Example 17). The arrangement: species or system NSG mice. On the procedure:
Immunodeficient NSG mice (Jackson Laboratory) were used to identify the efficacy of CAR T cell anti-tumor activity in vivo. A folate receptor expressing MDA-MB-231 cancer cell line was subcutaneously injected into the back of NSG mice to establish solid tumor xenografts. When tumor volume of around 100-300 mm^3 was reached, a desired concentration of EC17 (as shown in the figure legends) was introduced 4 hours before the administration of a desired number of CAR T cell (as shown in the figure legends) into the mice bearing tumors. After initial administration of EC17 and CAR T cells, desired concentrations of EC17 (as shown in the figure legends) were also introduced (i.v.) three times per week. Control mice were administered T cells without CAR modification. Other control mice were administrated CAR-Ts, but PBS was dosed instead of EC17. Anti-tumor efficacy was monitored by tumor volume. General toxicity of the therapy was monitored by weight loss, gross animal morphology and behavior.

The subject of another data set is MDA-MB-231 tumors. The experiment in a line: IFN-γ in blood versus EC17 dose level and presence of tumor (Example 24). The data set is classed as in vivo, mice. To be noted: 10 days after CAR-T injection, EC17 three times per week. On the procedure:
CAR-T cells were injected into naïve mice (8 million per mouse) and mice bearing MDA-MB-231 tumors (5 million per mouse). Various levels of EC17 were administrated three times per week. IFN-γ in blood was measured 10 days after CAR-T cell injection.

A further data set relates to MDA-MB-231. The experiment in a line: FITC-CAR-T/EC17 therapy, MDA-MB-231 model (Example 28). In kind it is in vivo, NSG mice. As to conditions: 500 nmol/kg weekly, 5 million FITC-CAR-T. On the procedure:
To test whether FITC-CAR-T/EC17 therapy has anti-tumor activity in various FR+ tumor models, NSG mice were subcutaneously implanted with MDA-MB-231 (triple negative breast cancer cell line), OV90 (human ovarian cancer cell line), KB (human cervical adenocarcinoma cell line), SKOV-3 (human ovarian carcinoma cell line), or HEK293-FRa (HEK293 stably-transfected with human FRa). When tumor size reached […], one dose of EC17 at 500 nmol/kg of body weight was injected by tail vein followed with administering of 5 million FITC-CAR-T cells 4 hours later. 500 nmol/kg EC17 was dosed once every week after the initial EC17/CAR-T administration (about day 7), tumor size and body weights of mice were monitored three times per week. The EC17 dosing days were labeled as green dashed vertical lines in the graph. […] EC17 dose-dependent temporary body weight loss was also observed in all tumor bearing mice, indicating the activation of CAR-Ts is EC17-dependent in these mice.

The next data set concerns FR+ HEK-FRa xenografts. The experiment in a line: FITC-CAR-T proliferation in HEK-FRa s.c. xenograft model (Example 37). As to conditions: 500 nmol/kg three times per week. In kind it is in vivo, mice. On the procedure: as §1, §2

With `Nc1nc2ncc(CNc3ccc(C(=O)NC(CCC(=O)NCCNC(=S)Nc4ccc(-c5c6ccc(=O)cc-6oc6cc(O)ccc56)c(C(=O)O)c4)C(=O)O)cc3)nc2c(=O)[nH]1` (centres unmarked) [EC17, FITC-Folate], in data set [1], the “weight loss (serious CAR T cell mediated toxicity)” value was > 10%. In addition, the “toxicity (body weight loss)” value in the data set with MDA-MB-231 tumor (20 nmol/kg TIW) is “least toxicity”; in the data set with MDA-MB-231 tumor (500 nmol/kg TIW), “strongest toxicity”. For the same compound, in the data set with MDA-MB-231 tumor (500, 100 or 20 nmol/kg TIW, 10 million CAR-T), the tumor outcome is on record as “all eliminated”. For the same compound, the spleen size entry with FR+ MDA-MB-231 tumors (500 nmol/kg three times per week) was “enlarged spleens”. In addition, the body weight entry with FR+ MDA-MB-231 tumors (EC17 three times per week) was “body weight loss in the first 10 days”. Further, in data set [2] (5 million CAR T cells), the “effect of changing dosing frequency from TIW to SIW” value was “reduce the toxicity and achieve better anti-tumor potency”. The anti-tumor outcome in data set [2] (EC17 20 and 100 nmoles/kg) is given as “complete cures”. Besides, the “sCRS and body weight loss compared to 500 nmoles/kg cohort” value in data set [2] (EC17 20 and 100 nmoles/kg) was “a lower percentage of sCRS and less body weight loss”. Moreover, the body weight loss in data set [2] (optimized EC17 amount and CAR T numbers, complete cures reached) was determined as 2%. Further, the sCRS and cures entry in data set [2] (over-saturated EC17 doses 1500 and 10000 nmoles/kg) is “less mice showed sCRS but less mice reached cures”. The “cytokine production (IFN-γ in blood)” value in the data set on MDA-MB-231 tumors was “dependent on both the bridge (EC17) dose level and the presence of the tumor”. In the data set on MDA-MB-231, this compound had a cures of 100%. Further, the FITC-CAR-T proliferation entry with FR+ HEK-FRa xenografts is listed as “rapid proliferation”.
